Data on three molecules can be found in PMC11871066, “Structure-based discovery of hydrocarbon-stapled paxillin peptides that block FAK scaffolding in cancer” (Nature Communications, 2025).

Molecules are shown by their SMILES. pEC50, pIC50: −log10 of the molar value. Like-named read-outs stand apart in the source and are kept apart here. Bridge positions count the residues as written; N and C are the ends. Square brackets hold non-standard residues; d marks the D form. Peptide text beside a SMILES is read from it. * marks the point of attachment. Myristoyl = CCCCCCCCCCCCCC(=O)*; R8 = C=CCCCCCC[C@@](C)(N)C(=O)O; S5 = C=CCCC[C@](C)(N)C(=O)O Where only a bound is given, the exact number is not on record here.

The target of test [1] is 97 kinases (kinase named in endpoint) (Homo sapiens, UniProt P36507). As to the kind of experiment: Eurofins KINOMEscan profiling, 97 kinases. The note with it: read-out: % Ctrl, MEK2.
Description: (§2) This experiment was performed by Eurofins KINOMEscan™ Profiling Service. […] The lysates were centrifuged and filtered, the remaining kinases were produced in HEK-293 cells and subsequently tagged with DNA for qPCR detection. […] The liganded beads were blocked with excess biotin and washed with blocking buffer (SeaBlock (Pierce), 1% BSA, 0.05% Tween-20, 1 mM DTT). […] Test compounds were prepared as 100x stocks in 100% DMSO and directly diluted into the assay. All reactions were performed in polypropylene 384-well plates in a final volume of 0.02 ml. […] The kinase concentration in the eluates was measured by qPCR.
(§3) (negative control signal - positive control signal)] x 100. ( b) AccompanyingSelectivity Scores or S -scores
(§4) which are quantitative measures of compound selectivity. They are calculated by dividing the number of
(§5) kinases that compounds bind to by the total number of distinct kinases tested, excluding mutant variants.
(§6) S(35)= ( num ber of non -mutant kinases with %Ctrl <35)/(number of non- mutant kinases tested)], S(10)=
(§7) non- mutant kinases with %Ctrl <1)/(number of non- mutant kinases tested)].
Test [2] has as its target 97 kinases (kinase named in endpoint) (Homo sapiens, UniProt Q02763). Nature of the test: Eurofins KINOMEscan profiling, 97 kinases. The note with it: read-out: % Ctrl, TIE2.
Description: as §2, §3, §4, §5, §6, §7
Test [3] addresses 97 kinases (kinase named in endpoint) (Homo sapiens, UniProt P21802). Nature of the test: Eurofins KINOMEscan profiling, 97 kinases. The note with it: read-out: % Ctrl, FGFR2.
Description: as §2, §3, §4, §5, §6, §7
Test [4] deals with 97 kinases (kinase named in endpoint) (Homo sapiens, UniProt P15056). Nature of the test: Eurofins KINOMEscan profiling, 97 kinases. Particulars: read-out: % Ctrl, BRAF.
Description: as §2, §3, §4, §5, §6, §7
Test [5] has as its target 97 kinases (kinase named in endpoint) (Homo sapiens, UniProt P00533, L858R). Nature of the test: Eurofins KINOMEscan profiling, 97 kinases. The note with it: read-out: % Ctrl, EGFR(L858R).
Description: as §2, §3, §4, §5, §6, §7
Test [6] has as its target 97 kinases (kinase named in endpoint) (Homo sapiens, UniProt P15056, V600E). As to the kind of experiment: Eurofins KINOMEscan profiling, 97 kinases. Particulars: read-out: % Ctrl, BRAF(V600E).
Description: as §2, §3, §4, §5, §6, §7
Test [7] has as its target 97 kinases (kinase named in endpoint) (Homo sapiens, UniProt P16234). Nature of the test: Eurofins KINOMEscan profiling, 97 kinases. Particulars: read-out: % Ctrl, PDGFRA.
Description: as §2, §3, §4, §5, §6, §7
Test [8] addresses 97 kinases (kinase named in endpoint) (Homo sapiens, UniProt O00444). As to the kind of experiment: Eurofins KINOMEscan profiling, 97 kinases. The note with it: read-out: % Ctrl, PLK4.
Description: as §2, §3, §4, §5, §6, §7
Test [9] has as its target 97 kinases (kinase named in endpoint) (Homo sapiens, UniProt Q05397). Nature of the test: Eurofins KINOMEscan profiling, 97 kinases. Particulars: read-out: % Ctrl, FAK.
Description: as §2, §3, §4, §5, §6, §7
Test [10] relates to SK-MEL-147 cells. As to the kind of experiment: RealTime-Glo Annexin V apoptosis assay. The note with it: for induction of apoptosis, time-course: every 24 h over 96 h. It is filed as cell-based, human. The protocol: SK-MEL-147 cells were seeded at 1000 cells/well in 384-well white-walled, clear-bottom plates (Corning). Cells were allowed to adhere overnight. Serial twofold dilutions of drugs were prepared starting at 200 μM. Immediately after adding the drug treatments, 2X RealTime-Glo™ Annexin V Apoptosis detection reagent (Promega) was added. Replicates were also included for the following controls: “no-cell” (negative), vehicle-only controls (negative), and cisplatin (5 μM, positive). […] Dose-response curves and EC50 curves were obtained using GraphPad Prism (version 10.3.1), reporting mean luminescence relative to DMSO ± SD. A minimum of 5 independent biological runs (n = 5) were performed per treatment group. […]
manner via Annexin V apopt osi s ti me -course study. SK -MEL- 147 cells treated with ( a) 2012, (b) 2 0 20, and (c) defactinib are evaluated for apoptosis using RealTime- Glo system for Annexin V binding. EC50 curves representing data obtained every 24 hours, over the course of 96 hours total. EC50 cur ves f it us i ng GraphPad Prism reporting mean ± SD of (a) 7 biological replicates (n=7); (b) 5 biological replicates (n =5); and (c) 5 biological replicates (n =5). Source data are provided as Source Data files.

Test [11] has as its system LX-2 cells. Nature of the test: cells. It is filed as cell-based, human. Particulars: 96 h. The protocol: (§1) Cells were seeded at 1000 cells per well in white-walled, clear bottom 96-well plates and allowed to adhere in the incubator for 24 h. […] Treatment doses were created in a 12-or 10-point, twofold serial dilution, starting at 200 μM. After 24 h of treatment, 10% FBS was spiked back into each well and the plate returned to 37 °C […]. After 96 h of drug treatment, the Promega 2D CellTiter-Glo reagent was added to each well at a 1:2 ratio of reagent to treatment media. […] This assay was performed a minimum of 3 (n = 3) times for each cell line, with each run containing a minimum of 3 technical replicates per run. IC50 curves were generated using GraphPad Prism (version 10.3.1), reporting the mean % viability relative to DMSO ± SD.

Test [12] has as its system Hep-G2 cells. Nature of the test: cells. It is filed as cell-based, human. Particulars: 96 h. The protocol:
as §1

For test [13], the system named is WM88 cells. Nature of the test: cells. The note with it: 96 h. In kind it is cell-based, human. The method, then: as §1
Test [14] relates to SK-MEL-147 cells. Nature of the test: cells. In kind it is cell-based, human. Particulars: 96 h. The protocol: as §1
For test [15], the system named is ONDA7 cells. As to the kind of experiment: cells. Particulars: 96 h. It is filed as cell-based, human. The protocol:
as §1

Test [16] relates to NHEM cells. As to the kind of experiment: cells. In kind it is cell-based, human. The note with it: 96 h. The protocol:
as §1

Test [17] deals with SK-MEL-147 cells. As to the kind of experiment: Transwell invasion assay. It is filed as cell-based, human. The method, then: SK-MEL-147 cells were seeded at 400,000 cells/well in six-well plates and allowed to adhere in the incubator overnight. Cells were pretreated with drugs ranging from 200–0.01 μM, and incubated for 48 h. Subsequently, 8.0 μm PET membrane cell culture inserts (Falcon) were coated with 40 μL of 0.3 mg/mL Matrigel (Corning) diluted in serum-free media and incubated at 37 °C/5% CO2 for 5 h to allow the solution to gel. Unbound Matrigel was removed from the inserts, and membranes were rehydrated with serum-containing media for an additional hour. Treated cells were then trypsinized, collected by centrifugation, washed with DPBS, and resuspended in serum-free media. About 50,000 cells per treatment group were seeded into upper chambers with additional serum-free media. 10% FBS-containing media was placed into bottom chambers as a chemoattractant. After 24 h, inserts were then stained with crystal violet (Sigma-Aldrich) and washed with DPBS. Using an ECHO Revolve microscope, bright field images of 6 fields of view for each insert were taken at 10x magnification. The number of invaded cells in each image was quantified using ImageJ (version 1.52a). Bar graphs, dose-response curves, and IC50 values were established using GraphPad Prism (version 10.3.1), reporting the mean number of invaded cells relative to DMSO ± SD.
Transwell invasion assay. Representative brightfield images of invaded SK -MEL- 147 cells on transwell inserts at 10X magnification following peptide treatment. Images show invaded cells after treatment with various concentrations of 2020 (top panel), 2012 (middle panel), and defactinib (bottom panel), in addition to DMSO vehicle-control (left, top panel) and ad- FRNK positive control (left, bottom panel). Bar graphs reveal m ean number of invaded cells ± SD and calculated IC50 values across all dos e s of 2020 (left graph, n=2), 2012 (middle graph, n=6), and defactinib (right graph, n=4 ). All values for ‘n’ represent independent biological replicates. One -way ANOVA analyses and Dunnet’s multiple comparison tests were performed

Where [18] appears, read: Homo sapiens, average of n >= 3, read-out: cell viability IC50.

97 kinases (kinase named in endpoint) (Homo sapiens, UniProt P36507), sequence (P36507 whole entry): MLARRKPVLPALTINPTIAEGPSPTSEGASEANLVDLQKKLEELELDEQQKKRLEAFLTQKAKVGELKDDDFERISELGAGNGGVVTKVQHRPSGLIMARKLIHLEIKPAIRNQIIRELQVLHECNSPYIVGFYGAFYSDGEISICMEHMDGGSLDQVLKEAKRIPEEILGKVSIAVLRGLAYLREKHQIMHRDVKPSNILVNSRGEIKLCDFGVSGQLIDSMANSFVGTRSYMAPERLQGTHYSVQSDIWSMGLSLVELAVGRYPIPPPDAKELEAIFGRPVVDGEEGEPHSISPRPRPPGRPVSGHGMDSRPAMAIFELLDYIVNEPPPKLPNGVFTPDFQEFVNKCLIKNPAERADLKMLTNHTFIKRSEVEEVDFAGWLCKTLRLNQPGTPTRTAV
97 kinases (kinase named in endpoint) (Homo sapiens, UniProt O00444), sequence (O00444 whole entry): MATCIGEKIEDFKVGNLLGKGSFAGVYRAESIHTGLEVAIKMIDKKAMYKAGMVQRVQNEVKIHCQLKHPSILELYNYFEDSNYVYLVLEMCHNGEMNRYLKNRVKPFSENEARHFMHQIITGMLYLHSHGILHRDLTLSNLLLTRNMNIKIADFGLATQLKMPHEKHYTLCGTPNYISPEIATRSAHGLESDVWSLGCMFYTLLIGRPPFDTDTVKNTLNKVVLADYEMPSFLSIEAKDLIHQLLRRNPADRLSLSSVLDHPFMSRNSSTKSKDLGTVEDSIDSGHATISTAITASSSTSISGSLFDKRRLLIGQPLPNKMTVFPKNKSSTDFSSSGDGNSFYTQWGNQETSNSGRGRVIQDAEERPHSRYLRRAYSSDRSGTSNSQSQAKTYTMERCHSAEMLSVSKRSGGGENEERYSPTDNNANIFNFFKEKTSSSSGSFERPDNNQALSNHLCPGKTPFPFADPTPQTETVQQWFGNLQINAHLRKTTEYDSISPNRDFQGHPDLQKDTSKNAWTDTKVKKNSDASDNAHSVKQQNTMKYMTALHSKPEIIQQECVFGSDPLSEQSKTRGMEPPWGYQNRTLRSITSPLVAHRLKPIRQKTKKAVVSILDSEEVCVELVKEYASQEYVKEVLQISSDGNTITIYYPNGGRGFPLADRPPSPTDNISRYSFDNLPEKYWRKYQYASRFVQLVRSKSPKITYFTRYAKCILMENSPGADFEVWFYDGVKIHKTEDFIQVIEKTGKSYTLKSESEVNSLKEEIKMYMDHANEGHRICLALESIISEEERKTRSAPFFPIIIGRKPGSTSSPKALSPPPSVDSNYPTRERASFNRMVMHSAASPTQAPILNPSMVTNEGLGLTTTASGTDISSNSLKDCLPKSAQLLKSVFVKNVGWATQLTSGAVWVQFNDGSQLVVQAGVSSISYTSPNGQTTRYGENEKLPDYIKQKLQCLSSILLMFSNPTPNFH
97 kinases (kinase named in endpoint) (Homo sapiens, UniProt P15056), sequence (P15056 whole entry): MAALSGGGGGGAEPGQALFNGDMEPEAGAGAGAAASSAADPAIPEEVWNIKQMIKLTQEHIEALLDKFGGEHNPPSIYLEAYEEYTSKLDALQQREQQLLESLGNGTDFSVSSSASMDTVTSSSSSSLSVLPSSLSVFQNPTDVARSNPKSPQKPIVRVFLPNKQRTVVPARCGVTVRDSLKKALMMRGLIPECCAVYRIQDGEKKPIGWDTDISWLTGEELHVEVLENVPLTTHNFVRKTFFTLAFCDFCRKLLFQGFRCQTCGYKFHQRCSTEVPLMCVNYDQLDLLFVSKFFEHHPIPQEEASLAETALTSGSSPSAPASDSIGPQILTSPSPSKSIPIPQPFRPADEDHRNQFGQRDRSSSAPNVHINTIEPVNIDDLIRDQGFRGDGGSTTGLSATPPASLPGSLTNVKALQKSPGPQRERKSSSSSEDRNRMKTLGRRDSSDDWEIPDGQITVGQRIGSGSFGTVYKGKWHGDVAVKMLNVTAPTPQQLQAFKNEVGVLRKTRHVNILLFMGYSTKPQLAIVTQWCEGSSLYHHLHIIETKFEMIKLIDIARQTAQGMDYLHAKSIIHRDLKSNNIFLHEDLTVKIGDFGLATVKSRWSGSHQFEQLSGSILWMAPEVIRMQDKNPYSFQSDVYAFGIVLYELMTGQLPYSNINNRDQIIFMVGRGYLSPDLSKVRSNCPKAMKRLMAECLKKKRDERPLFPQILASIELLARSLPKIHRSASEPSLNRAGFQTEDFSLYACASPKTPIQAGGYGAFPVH
97 kinases (kinase named in endpoint) (Homo sapiens, UniProt Q05397), sequence (Q05397 whole entry): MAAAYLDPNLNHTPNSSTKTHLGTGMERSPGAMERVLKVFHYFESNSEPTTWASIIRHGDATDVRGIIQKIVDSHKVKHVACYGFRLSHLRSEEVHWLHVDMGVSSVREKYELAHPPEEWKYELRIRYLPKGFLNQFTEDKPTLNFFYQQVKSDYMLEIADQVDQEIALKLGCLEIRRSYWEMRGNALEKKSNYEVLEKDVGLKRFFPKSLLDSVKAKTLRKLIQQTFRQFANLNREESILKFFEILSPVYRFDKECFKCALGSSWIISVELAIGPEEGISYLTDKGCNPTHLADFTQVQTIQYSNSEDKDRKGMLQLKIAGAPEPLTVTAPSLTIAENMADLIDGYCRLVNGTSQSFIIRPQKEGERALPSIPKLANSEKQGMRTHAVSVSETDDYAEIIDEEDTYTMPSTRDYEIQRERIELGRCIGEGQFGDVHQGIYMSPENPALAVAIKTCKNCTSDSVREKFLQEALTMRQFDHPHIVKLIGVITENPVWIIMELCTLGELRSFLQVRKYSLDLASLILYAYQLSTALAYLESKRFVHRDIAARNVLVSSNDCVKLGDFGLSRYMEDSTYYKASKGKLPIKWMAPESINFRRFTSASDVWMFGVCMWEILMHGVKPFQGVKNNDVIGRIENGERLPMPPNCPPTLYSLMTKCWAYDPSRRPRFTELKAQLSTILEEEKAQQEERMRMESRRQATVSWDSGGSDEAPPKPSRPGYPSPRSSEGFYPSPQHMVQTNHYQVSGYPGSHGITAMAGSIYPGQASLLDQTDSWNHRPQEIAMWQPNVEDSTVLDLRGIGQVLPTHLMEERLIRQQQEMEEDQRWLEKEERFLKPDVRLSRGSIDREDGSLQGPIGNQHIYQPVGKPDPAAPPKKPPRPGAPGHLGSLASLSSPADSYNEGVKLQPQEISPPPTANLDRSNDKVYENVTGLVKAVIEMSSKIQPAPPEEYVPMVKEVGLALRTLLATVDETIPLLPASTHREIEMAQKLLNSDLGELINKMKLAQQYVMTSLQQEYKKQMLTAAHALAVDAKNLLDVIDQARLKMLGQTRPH
97 kinases (kinase named in endpoint) (Homo sapiens, UniProt Q02763), sequence (Q02763 23-1124): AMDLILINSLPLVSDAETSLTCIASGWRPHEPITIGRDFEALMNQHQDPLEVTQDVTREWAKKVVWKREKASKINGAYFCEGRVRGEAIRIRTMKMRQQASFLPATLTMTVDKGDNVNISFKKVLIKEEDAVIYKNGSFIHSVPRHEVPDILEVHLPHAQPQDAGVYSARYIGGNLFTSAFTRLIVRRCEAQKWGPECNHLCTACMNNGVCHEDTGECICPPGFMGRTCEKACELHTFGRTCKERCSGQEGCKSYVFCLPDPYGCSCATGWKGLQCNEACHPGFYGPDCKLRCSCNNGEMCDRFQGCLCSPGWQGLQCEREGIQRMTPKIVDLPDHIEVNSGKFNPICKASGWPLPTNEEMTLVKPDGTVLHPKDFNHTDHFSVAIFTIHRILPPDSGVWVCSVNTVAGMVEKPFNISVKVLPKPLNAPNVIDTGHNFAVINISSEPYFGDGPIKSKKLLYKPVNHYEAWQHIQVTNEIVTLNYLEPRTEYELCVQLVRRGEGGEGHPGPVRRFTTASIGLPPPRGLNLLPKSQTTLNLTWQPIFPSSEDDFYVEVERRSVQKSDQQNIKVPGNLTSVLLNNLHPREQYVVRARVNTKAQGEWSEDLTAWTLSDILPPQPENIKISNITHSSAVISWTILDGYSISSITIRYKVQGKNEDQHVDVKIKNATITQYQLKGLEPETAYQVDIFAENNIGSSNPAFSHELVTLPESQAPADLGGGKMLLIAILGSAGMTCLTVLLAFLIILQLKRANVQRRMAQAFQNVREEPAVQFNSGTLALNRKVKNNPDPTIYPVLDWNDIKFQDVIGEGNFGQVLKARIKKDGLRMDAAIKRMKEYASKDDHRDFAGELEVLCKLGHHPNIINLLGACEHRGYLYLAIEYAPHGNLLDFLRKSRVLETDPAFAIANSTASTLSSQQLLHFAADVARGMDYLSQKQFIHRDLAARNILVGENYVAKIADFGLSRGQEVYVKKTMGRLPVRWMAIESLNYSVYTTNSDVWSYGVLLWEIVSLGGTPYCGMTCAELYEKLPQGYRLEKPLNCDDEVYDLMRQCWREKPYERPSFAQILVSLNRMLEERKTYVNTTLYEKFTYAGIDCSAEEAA
97 kinases (kinase named in endpoint) (Homo sapiens, UniProt P15056, V600E), sequence (P15056 whole entry V600E): as the sequence (P15056 whole entry) above, with V600E counted along it

In the case of `CNC(=O)c1ccc(Nc2ncc(C(F)(F)F)c(NCc3nccnc3N(C)S(C)(=O)=O)n2)cc1` [defactinib], the remaining binding at 1 µM turned out to be 64% in test [1]; 41% in [2]; 43% in [3]; 100% in [4]; 81% in test [5]; 100% in test [6]. Besides, the remaining binding at 1 µM was found to be 82% in test [7], 39% in [8] and 0.1% in test [9]. In addition, in test [10] (96 h), the “Annexin V apoptosis EC50” value was “did not exhibit a dose-dependent effect”. In [10], the “induction of apoptosis, time-course” value was “no effect at any timepoint”. The pIC50 in test [11] (Homo sapiens, LX-2, average of n >= 3, read-out: cell viability IC50) is 5.66; in test [12] (Homo sapiens, HepG2, average of n >= 3, read-out: cell viability IC50), 4.17; in test [13] (setting [18]), 4.67; in test [14] (Homo sapiens, SK-MEL-147, average of n >= 3, read-out: cell viability IC50) it was 5.55; in test [15] (setting [18]), 4.72; in test [16] (setting [18]), under 3.70. In test [17] (2.5 µM), the “percentage of invaded cells” value is on record as 0%.

For `CCCCCCCCCCCCCC(=O)N[C@@H](CC(N)=O)C(=O)N[C@@H](CC(C)C)C(=O)N[C@]1(C)CCCCCCC=CCCC[C@@](C)(C(=O)N[C@@H](CCC(=O)O)C(=O)N[C@@H](CC(C)C)C(=O)N[C@@H](CC(N)=O)C(N)=O)NC(=O)[C@H](CC(C)C)NC(=O)[C@H](CC(C)C)NC(=O)[C@H](CCCNC(=N)N)NC(=O)[C@H](CC(=O)O)NC(=O)[C@H](CC(C)C)NC(=O)[C@H](CCC(=O)O)NC1=O` [compound 2012], the remaining binding at 1 µM in test [1] amounted to 79%; in test [2] it was 98%; in test [3], 90%; in test [4], 100%; in [5], 99%; in test [6] it was 100%. Also, the remaining binding at 1 µM in [7] was found to be 100%; in [8], 97%; in test [9] it was 96%. Besides, the negative-log EC50 (pEC50) in [10] (96 h) is 5.08. For the same molecule, the negative-log IC50 (pIC50) in test [11] is under 3.70; in test [12], under 3.70; in test [13] it was 5.35; in test [14], 5.63; in test [15], 5.01; in [16], under 3.70. Besides, the negative-log IC50 (pIC50) in [17] (48 h treatment) is 5.74.

Regarding `CCCCCCCCCCCCCC(=O)N[C@@H](CC(N)=O)C(=O)N[C@@H](CC(C)C)C(=O)N[C@]1(C)CCCCCCC=CCCC[C@@](C)(C(=O)N[C@@H](CCC(=O)O)C(=O)N[C@@H](CCC(=O)O)C(=O)N[C@@H](CC(N)=O)C(N)=O)NC(=O)[C@H](CC(C)C)NC(=O)[C@H](CC(C)C)NC(=O)[C@H](CCCNC(=N)N)NC(=O)[C@H](CC(=O)O)NC(=O)[C@H](CCC(=O)O)NC(=O)[C@H](CCC(=O)O)NC1=O` [compound 2020] (Myristoyl-NL[R8]EEDRLL[S5]EEN-NH2; staple 3-10), in test [10], the “induction of apoptosis, time-course” value was “no effect at any timepoint”. In addition, the negative logarithm of the IC50 (pIC50) in test [11], in test [12], in [13], in test [14], in [15] and in [16] was under 3.70 in each case. Also, the “invasion IC50” value in [17] (48 h treatment) is reported as “no effect”.

One may read the pIC50 as −log10 of the IC50, conventionally taken in molar units. For orientation: pEC50 means the EC50 on a negative log10 scale, so that one unit is a factor of ten.
